# Assay results: ChEMBL document CHEMBL5724914, “Linking interpersonal differences in gut microbiota composition and drug biotransformation activity” (2024)
# Test: (§1) The drug is tested on Z-028 corresponding to mouse gut metagenome with ENA study accession number: PRJEB37062 and ENA sample accession number: ERS12561827 for biotransformation under anaerobic condition. The drug concentrations were measured over 9 timepoints collected between 0 and 24 hours of incubation by liquid-chromatography-coupled mass spectrometry (LC–MS)
# Conditions: 2 µM
# Also: call rule not given here.
row,SMILES,Bacterial Biotransformation
1,CCN(CC)CCNC(=O)c1cc(S(C)(=O)=O)ccc1OC [TIAPRIDE],Compound NOT metabolized
2,CC(C)(C)NC[C@H](O)COc1nsnc1N1CCOCC1.O=C(O)/C=C\C(=O)O [TIMOLOL MALEATE],Compound NOT metabolized
3,CC[C@@]1(O)C(=O)OCc2c1cc1n(c2=O)Cc2cc3c(CN(C)C)c(O)ccc3nc2-1 [TOPOTECAN],Compound NOT metabolized
4,COc1ccc(C(CN(C)C)C2(O)CCCCC2)cc1 (stereo not drawn) [VENLAFAXINE],Compound NOT metabolized
5,CCOC(=O)C1=C[C@]2(CC)CCCN3CCc4c(n1c1ccccc41)[C@@H]32 [VINPOCETINE],Compound NOT metabolized
6,C[C@@H](c1ncncc1F)[C@](O)(Cn1cncn1)c1ccc(F)cc1F [VORICONAZOLE],Compound NOT metabolized
7,CCN(C(C)=O)c1cccc(-c2ccnc3c(C#N)cnn23)c1 [ZALEPLON],Compound NOT metabolized

# Test: as §1, with “WLS-370” for “Z-028”, “human” for “mouse”, “ERS12561793” for “ERS12561827”
# Conditions: 2 µM
row,SMILES,Bacterial Biotransformation
1,CCN(CC)CCNC(=O)c1cc(S(C)(=O)=O)ccc1OC [TIAPRIDE],Compound NOT metabolized
2,CC(C)(C)NC[C@H](O)COc1nsnc1N1CCOCC1.O=C(O)/C=C\C(=O)O [TIMOLOL MALEATE],Compound NOT metabolized
3,CC[C@@]1(O)C(=O)OCc2c1cc1n(c2=O)Cc2cc3c(CN(C)C)c(O)ccc3nc2-1 [TOPOTECAN],Compound NOT metabolized
4,COc1ccc(C(CN(C)C)C2(O)CCCCC2)cc1 (stereo not drawn) [VENLAFAXINE],Compound NOT metabolized
5,CCOC(=O)C1=C[C@]2(CC)CCCN3CCc4c(n1c1ccccc41)[C@@H]32 [VINPOCETINE],Compound metabolized
6,C[C@@H](c1ncncc1F)[C@](O)(Cn1cncn1)c1ccc(F)cc1F [VORICONAZOLE],Compound metabolized
7,CCN(C(C)=O)c1cccc(-c2ccnc3c(C#N)cnn23)c1 [ZALEPLON],Compound metabolized

# Test: as §1, with “WLS-006” for “Z-028”, “human” for “mouse”, “ERS12561741” for “ERS12561827”
# Conditions: 2 µM
row,SMILES,Bacterial Biotransformation
1,CCN(CC)CCNC(=O)c1cc(S(C)(=O)=O)ccc1OC [TIAPRIDE],Compound NOT metabolized
2,CC(C)(C)NC[C@H](O)COc1nsnc1N1CCOCC1.O=C(O)/C=C\C(=O)O [TIMOLOL MALEATE],Compound NOT metabolized
3,CC[C@@]1(O)C(=O)OCc2c1cc1n(c2=O)Cc2cc3c(CN(C)C)c(O)ccc3nc2-1 [TOPOTECAN],Compound NOT metabolized
4,COc1ccc(C(CN(C)C)C2(O)CCCCC2)cc1 (stereo not drawn) [VENLAFAXINE],Compound NOT metabolized
5,CCOC(=O)C1=C[C@]2(CC)CCCN3CCc4c(n1c1ccccc41)[C@@H]32 [VINPOCETINE],Compound metabolized
6,C[C@@H](c1ncncc1F)[C@](O)(Cn1cncn1)c1ccc(F)cc1F [VORICONAZOLE],Compound metabolized
7,CCN(C(C)=O)c1cccc(-c2ccnc3c(C#N)cnn23)c1 [ZALEPLON],Compound metabolized

# Conditions: human gut metagenome, 24 h, 2 µM
row,SMILES,Bacterial Biotransformation
1,CCN(CC)CCNC(=O)c1cc(S(C)(=O)=O)ccc1OC [TIAPRIDE],Compound NOT metabolized
2,CC(C)(C)NC[C@H](O)COc1nsnc1N1CCOCC1.O=C(O)/C=C\C(=O)O [TIMOLOL MALEATE],Compound NOT metabolized
3,CC[C@@]1(O)C(=O)OCc2c1cc1n(c2=O)Cc2cc3c(CN(C)C)c(O)ccc3nc2-1 [TOPOTECAN],Compound NOT metabolized
4,COc1ccc(C(CN(C)C)C2(O)CCCCC2)cc1 (stereo not drawn) [VENLAFAXINE],Compound NOT metabolized
5,CCOC(=O)C1=C[C@]2(CC)CCCN3CCc4c(n1c1ccccc41)[C@@H]32 [VINPOCETINE],Compound NOT metabolized
6,C[C@@H](c1ncncc1F)[C@](O)(Cn1cncn1)c1ccc(F)cc1F [VORICONAZOLE],Compound metabolized
7,CCN(C(C)=O)c1cccc(-c2ccnc3c(C#N)cnn23)c1 [ZALEPLON],Compound NOT metabolized

# Conditions: human gut metagenome, 24 h, 2 µM
# Remark: another data set of the same source
row,SMILES,Bacterial Biotransformation
1,CCN(CC)CCNC(=O)c1cc(S(C)(=O)=O)ccc1OC [TIAPRIDE],Compound NOT metabolized
2,CC(C)(C)NC[C@H](O)COc1nsnc1N1CCOCC1.O=C(O)/C=C\C(=O)O [TIMOLOL MALEATE],Compound NOT metabolized
3,CC[C@@]1(O)C(=O)OCc2c1cc1n(c2=O)Cc2cc3c(CN(C)C)c(O)ccc3nc2-1 [TOPOTECAN],Compound NOT metabolized
4,COc1ccc(C(CN(C)C)C2(O)CCCCC2)cc1 (stereo not drawn) [VENLAFAXINE],Compound NOT metabolized
5,CCOC(=O)C1=C[C@]2(CC)CCCN3CCc4c(n1c1ccccc41)[C@@H]32 [VINPOCETINE],Compound NOT metabolized
6,C[C@@H](c1ncncc1F)[C@](O)(Cn1cncn1)c1ccc(F)cc1F [VORICONAZOLE],Compound metabolized
7,CCN(C(C)=O)c1cccc(-c2ccnc3c(C#N)cnn23)c1 [ZALEPLON],Compound metabolized

# Conditions: human gut metagenome, 24 h, 2 µM
# Remark: another data set of the same source
row,SMILES,Bacterial Biotransformation
1,CCN(CC)CCNC(=O)c1cc(S(C)(=O)=O)ccc1OC [TIAPRIDE],Compound NOT metabolized
2,CC(C)(C)NC[C@H](O)COc1nsnc1N1CCOCC1.O=C(O)/C=C\C(=O)O [TIMOLOL MALEATE],Compound NOT metabolized
3,CC[C@@]1(O)C(=O)OCc2c1cc1n(c2=O)Cc2cc3c(CN(C)C)c(O)ccc3nc2-1 [TOPOTECAN],Compound NOT metabolized
4,COc1ccc(C(CN(C)C)C2(O)CCCCC2)cc1 (stereo not drawn) [VENLAFAXINE],Compound NOT metabolized
5,CCOC(=O)C1=C[C@]2(CC)CCCN3CCc4c(n1c1ccccc41)[C@@H]32 [VINPOCETINE],Compound NOT metabolized
6,C[C@@H](c1ncncc1F)[C@](O)(Cn1cncn1)c1ccc(F)cc1F [VORICONAZOLE],Compound metabolized
7,CCN(C(C)=O)c1cccc(-c2ccnc3c(C#N)cnn23)c1 [ZALEPLON],Compound metabolized

# Conditions: human gut metagenome, 24 h, 2 µM
# Remark: another data set of the same source
row,SMILES,Bacterial Biotransformation
1,CCN(CC)CCNC(=O)c1cc(S(C)(=O)=O)ccc1OC [TIAPRIDE],Compound NOT metabolized
2,CC(C)(C)NC[C@H](O)COc1nsnc1N1CCOCC1.O=C(O)/C=C\C(=O)O [TIMOLOL MALEATE],Compound NOT metabolized
3,CC[C@@]1(O)C(=O)OCc2c1cc1n(c2=O)Cc2cc3c(CN(C)C)c(O)ccc3nc2-1 [TOPOTECAN],Compound NOT metabolized
4,COc1ccc(C(CN(C)C)C2(O)CCCCC2)cc1 (stereo not drawn) [VENLAFAXINE],Compound NOT metabolized
5,CCOC(=O)C1=C[C@]2(CC)CCCN3CCc4c(n1c1ccccc41)[C@@H]32 [VINPOCETINE],Compound NOT metabolized
6,C[C@@H](c1ncncc1F)[C@](O)(Cn1cncn1)c1ccc(F)cc1F [VORICONAZOLE],Compound NOT metabolized
7,CCN(C(C)=O)c1cccc(-c2ccnc3c(C#N)cnn23)c1 [ZALEPLON],Compound metabolized

# Conditions: human gut metagenome, 24 h, 2 µM
# Remark: another data set of the same source
row,SMILES,Bacterial Biotransformation
1,CCN(CC)CCNC(=O)c1cc(S(C)(=O)=O)ccc1OC [TIAPRIDE],Compound NOT metabolized
2,CC(C)(C)NC[C@H](O)COc1nsnc1N1CCOCC1.O=C(O)/C=C\C(=O)O [TIMOLOL MALEATE],Compound NOT metabolized
3,CC[C@@]1(O)C(=O)OCc2c1cc1n(c2=O)Cc2cc3c(CN(C)C)c(O)ccc3nc2-1 [TOPOTECAN],Compound NOT metabolized
4,COc1ccc(C(CN(C)C)C2(O)CCCCC2)cc1 (stereo not drawn) [VENLAFAXINE],Compound NOT metabolized
5,CCOC(=O)C1=C[C@]2(CC)CCCN3CCc4c(n1c1ccccc41)[C@@H]32 [VINPOCETINE],Compound NOT metabolized
6,C[C@@H](c1ncncc1F)[C@](O)(Cn1cncn1)c1ccc(F)cc1F [VORICONAZOLE],Compound metabolized
7,CCN(C(C)=O)c1cccc(-c2ccnc3c(C#N)cnn23)c1 [ZALEPLON],Compound NOT metabolized

# Conditions: human gut metagenome, 24 h, 2 µM
# Remark: another data set of the same source
row,SMILES,Bacterial Biotransformation
1,CCN(CC)CCNC(=O)c1cc(S(C)(=O)=O)ccc1OC [TIAPRIDE],Compound metabolized
2,CC(C)(C)NC[C@H](O)COc1nsnc1N1CCOCC1.O=C(O)/C=C\C(=O)O [TIMOLOL MALEATE],Compound NOT metabolized
3,CC[C@@]1(O)C(=O)OCc2c1cc1n(c2=O)Cc2cc3c(CN(C)C)c(O)ccc3nc2-1 [TOPOTECAN],Compound NOT metabolized
4,COc1ccc(C(CN(C)C)C2(O)CCCCC2)cc1 (stereo not drawn) [VENLAFAXINE],Compound NOT metabolized
5,CCOC(=O)C1=C[C@]2(CC)CCCN3CCc4c(n1c1ccccc41)[C@@H]32 [VINPOCETINE],Compound NOT metabolized
6,C[C@@H](c1ncncc1F)[C@](O)(Cn1cncn1)c1ccc(F)cc1F [VORICONAZOLE],Compound metabolized
7,CCN(C(C)=O)c1cccc(-c2ccnc3c(C#N)cnn23)c1 [ZALEPLON],Compound metabolized
